Among the test systems are DU-145 prostate; SK-OV-3 ovarian; NCI-H23 lung; CAKI-1 renal; UACC-257 melanoma; SN12C renal; SF-539 CNS; SR leukemia.
What all share (test): growth of human tumour cells (NCI), 48 h

GI50 and TGI data for 11 molecules are collected here from PubChem BioAssay (NCI).

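48-hour exposure; five concentrations; linearly interpolated endpoints. GI50: concentration for 50% inhibition of growth. TGI denotes the concentration required for complete inhibition of growth.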

`O=C1c2cccnc2-c2nc(-c3ccc([N+](=O)[O-])cc3)cc3c2c1nc1ccccc13`: the GI50 in the assay on DU-145 prostate is 2.21 µM; in the assay with SK-OV-3 ovarian it was 11.4 µM; with NCI-H23 lung, 2.51 µM; in the assay with CAKI-1 renal, 13.8 µM; with UACC-257 melanoma it was 2.21 µM; with SN12C renal, 11.3 µM. The GI50 in the assay on SF-539 CNS was 3.05 µM. The TGI was 4.88 µM with DU-145 prostate; 39 µM in the assay on SK-OV-3 ovarian; 10.1 µM in the assay with NCI-H23 lung; more than 100 µM with CAKI-1 renal; 7.32 µM with UACC-257 melanoma; 25.7 µM in the assay on SN12C renal. In the assay with SF-539 CNS, this molecule came in with a TGI of 11.3 µM.

With `Fc1ccc(Nc2nc(Nc3ccc(-c4nc5ccccc5[nH]4)cc3)nc(N3CCCC3)n2)cc1`, the GI50 with DU-145 prostate is 4.21 µM; in the assay on SK-OV-3 ovarian, 15.9 µM; with SR leukemia, 0.927 µM; in the assay with NCI-H23 lung, 3.36 µM; in the assay with CAKI-1 renal, 3.01 µM; with SN12C renal it was 2.25 µM. For the same molecule, the GI50 in the assay on SF-539 CNS is 2.08 µM. Besides, the TGI in the assay on DU-145 prostate amounted to 15.3 µM; in the assay on SK-OV-3 ovarian, 31.6 µM; with SR leukemia, 6.5 µM; in the assay with NCI-H23 lung, 16.8 µM; in the assay on CAKI-1 renal, 12.5 µM; in the assay with SN12C renal it was 5.24 µM. Moreover, in the assay with SF-539 CNS, the TGI turned out to be 4.26 µM.

Take `N#C/C(=C/N1CCN(C(=O)c2ccco2)C1=S)C(N)=O`: the GI50 with DU-145 prostate was 29.8 µM; in the assay on SK-OV-3 ovarian, 42.6 µM; with SR leukemia, 3.03 µM; with NCI-H23 lung, 21.4 µM; in the assay on CAKI-1 renal, 11.8 µM; in the assay on UACC-257 melanoma, 23.3 µM. In the assay on SN12C renal, the GI50 was 12 µM. For the same molecule, the TGI with DU-145 prostate is more than 100 µM; in the assay on SK-OV-3 ovarian it was more than 100 µM; with SR leukemia, more than 100 µM; in the assay on NCI-H23 lung, 44 µM; in the assay on CAKI-1 renal, 34.4 µM; in the assay with UACC-257 melanoma it was 50.8 µM. For the same molecule, the TGI in the assay on SN12C renal came to 32.2 µM.

As to `C=C1C(=O)O[C@H]2[C@H]1CC/C(Cn1cc(CCC)nn1)=C\CC[C@@]1(C)O[C@@H]21`, the GI50 in the assay on DU-145 prostate is 4.32 µM; in the assay with SK-OV-3 ovarian, 26 µM; in the assay with SR leukemia, 2.88 µM; with NCI-H23 lung, 13.6 µM; in the assay on CAKI-1 renal, 3.91 µM; in the assay on SN12C renal it was 12.1 µM. Further, in the assay with SF-539 CNS, the GI50 is 8.87 µM. Further, the TGI stood at 16 µM in the assay on DU-145 prostate; 68.5 µM with SK-OV-3 ovarian; 26.1 µM in the assay with SR leukemia; 32 µM in the assay with NCI-H23 lung; 16.2 µM in the assay with CAKI-1 renal; 29.4 µM in the assay on SN12C renal. Besides, the TGI in the assay with SF-539 CNS is 22.5 µM.

Consider `COc1ccc2c(CNCCCCO)cc3cc4c(cc3c2c1)OCO4`, for which the GI50 was 1.33 µM with DU-145 prostate; 4.2 µM in the assay on SK-OV-3 ovarian; 2.24 µM in the assay on NCI-H23 lung; 0.628 µM in the assay with CAKI-1 renal; 0.823 µM in the assay on UACC-257 melanoma; 1.92 µM with SN12C renal. Besides, in the assay on SF-539 CNS, the GI50 was 1.26 µM. Besides, the TGI in the assay with DU-145 prostate stood at 7.09 µM; in the assay on SK-OV-3 ovarian, 23.8 µM; in the assay with NCI-H23 lung, 6.43 µM; in the assay on CAKI-1 renal, 2.96 µM; in the assay with UACC-257 melanoma, 2.88 µM; with SN12C renal it was 7.72 µM. Further, the TGI with SF-539 CNS was 4.13 µM.

Consider `NS(=O)(=O)c1ccc(-n2nc(-c3ccc(Cl)cc3)cc2C2=CC(=O)C=CC2=O)cc1`, for which the GI50 with DU-145 prostate is 23.7 µM; in the assay on SR leukemia, 26.7 µM; in the assay on NCI-H23 lung, 18 µM; in the assay on CAKI-1 renal, 25.2 µM; with UACC-257 melanoma, 19.9 µM; in the assay with SN12C renal, 19.7 µM. Further, the GI50 in the assay with SF-539 CNS is 21.5 µM. Besides, the TGI is 87.5 µM with DU-145 prostate; more than 100 µM with SR leukemia; 42.1 µM in the assay with NCI-H23 lung; 48.5 µM in the assay with CAKI-1 renal; 42.9 µM in the assay on UACC-257 melanoma; 36.5 µM in the assay on SN12C renal. This molecule also displayed a TGI in the assay on SF-539 CNS of 45.4 µM.

On to `CO/N=C1/c2cc(OC)ccc2-c2c(NOC)nc3ccccc3c21`, for which the GI50 in the assay with DU-145 prostate was 29.2 µM; in the assay with SR leukemia it was 38.7 µM; in the assay with NCI-H23 lung it was 28.6 µM; with CAKI-1 renal, more than 100 µM; with UACC-257 melanoma it was 28.2 µM; in the assay with SN12C renal, 29.5 µM. In addition, the GI50 in the assay with SF-539 CNS is 21.9 µM. The TGI with DU-145 prostate was more than 100 µM; in the assay with SR leukemia, more than 100 µM; with NCI-H23 lung it was 97.9 µM; in the assay with CAKI-1 renal it was more than 100 µM; in the assay with UACC-257 melanoma, more than 100 µM; with SN12C renal, more than 100 µM. In addition, the TGI with SF-539 CNS was 52.6 µM.

On to `Cc1ccccc1NC(=O)NC(CC(N)=O)c1ccc2c(c1)nc(-c1cccc(Oc3ccc(C(C)(C)C)cc3)c1)n2CCCN1CCCCC1C` (centres undefined), for which the GI50 is 5.4 µM in the assay on DU-145 prostate; 10.9 µM in the assay on SK-OV-3 ovarian; 4.89 µM in the assay with NCI-H23 lung; 17.2 µM in the assay with CAKI-1 renal; 1.86 µM with UACC-257 melanoma; 4.49 µM in the assay with SN12C renal. The GI50 with SF-539 CNS was 1.82 µM. Besides, the TGI in the assay with DU-145 prostate came to 13.6 µM; in the assay on SK-OV-3 ovarian it was 23.9 µM; with NCI-H23 lung, 9.91 µM; in the assay with CAKI-1 renal, 42.8 µM; in the assay on UACC-257 melanoma, 3.49 µM; in the assay on SN12C renal, 11.1 µM. In the assay with SF-539 CNS, this molecule registered a TGI of 3.77 µM.

As to `CCOC(=O)C(=Cc1ccccc1Br)C(=O)OCC`, the TGI in the assay with DU-145 prostate worked out at 2.68 µM; in the assay on SR leukemia, 0.723 µM; in the assay on NCI-H23 lung, 7.79 µM; in the assay on CAKI-1 renal it was 6.83 µM; in the assay with UACC-257 melanoma it was 14.7 µM; in the assay on SN12C renal, 15.6 µM. The TGI in the assay with SF-539 CNS was 8.32 µM.

In the case of `COc1cc(/C=C/C(=O)c2ccc(Nc3nc(Nc4ccc(F)cc4)nc(Nc4ccc(F)cc4)n3)cc2)cc(OC)c1OC`, the GI50 is more than 100 µM with DU-145 prostate; 80.7 µM with SK-OV-3 ovarian; 4.86 µM in the assay on NCI-H23 lung; more than 100 µM in the assay with CAKI-1 renal; 7.11 µM in the assay with UACC-257 melanoma; 33.6 µM in the assay on SN12C renal. Moreover, the GI50 with SF-539 CNS is 11.8 µM. Also, the TGI with DU-145 prostate was more than 100 µM; in the assay on SK-OV-3 ovarian, more than 100 µM; with NCI-H23 lung, more than 100 µM; in the assay with CAKI-1 renal, more than 100 µM; in the assay on UACC-257 melanoma, 61.1 µM; with SN12C renal, more than 100 µM. Also, in the assay on SF-539 CNS, the TGI was more than 100 µM.

`CC(=O)Nc1ccc(C(=O)N[C@@H]2C(=O)N3[C@@H]2SC(C)(C)[C@@H]3C(=O)O)cn1`: the TGI in the assay with DU-145 prostate, with SK-OV-3 ovarian, with NCI-H23 lung, with CAKI-1 renal, with UACC-257 melanoma and in the assay on SN12C renal was more than 100 µM in each case.
